Measurements published in ChEMBL document CHEMBL4118099, “Targeting Transcriptional Enhanced Associate Domains (TEADs)” (J Med Chem, 2018).
pIC50, pKd: −log10 of the molar value.

How the values were obtained:
[1] = target: T1, Transcriptional enhancer factor TEF-1 (Homo sapiens, UniProt P28347); experiment: Binding affinity to human GST-tagged TEAD1 (194 to 411) expressed in Escherichia coli BL21(DE3) by SPR assay
[2] = target: T1, Transcriptional enhancer factor TEF-1; experiment: Inhibition of human His-tagged YAP (50 to 171 residues) interaction with human GST-tagged TEAD1 (194 to 411) expressed in Escherichia coli BL21(DE3) incubated for 30 mins measured by SPR assay
[3] = target: Transcriptional enhancer factor TEF-3 (Homo sapiens, UniProt Q15561); experiment: Binding affinity to human His-tagged TEAD4 YBD (217 to 434 residues) expressed in Escherichia coli BL21(DE3) after 30 mins by ITC assay
Sequence of Transcriptional enhancer factor TEF-3 (Q15561 whole entry, the tested form may be a part): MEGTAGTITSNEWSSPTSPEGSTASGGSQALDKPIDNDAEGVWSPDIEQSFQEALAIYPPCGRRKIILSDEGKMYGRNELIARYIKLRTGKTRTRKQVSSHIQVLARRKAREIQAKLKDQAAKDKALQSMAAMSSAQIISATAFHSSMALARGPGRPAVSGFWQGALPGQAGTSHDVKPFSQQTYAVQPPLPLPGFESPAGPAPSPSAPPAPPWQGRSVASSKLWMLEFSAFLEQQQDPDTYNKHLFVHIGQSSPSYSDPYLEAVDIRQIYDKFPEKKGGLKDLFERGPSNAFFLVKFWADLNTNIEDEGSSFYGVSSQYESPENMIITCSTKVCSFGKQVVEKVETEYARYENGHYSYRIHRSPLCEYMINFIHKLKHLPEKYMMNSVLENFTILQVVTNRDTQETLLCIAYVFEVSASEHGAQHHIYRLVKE

T1 sequence (P28347 whole entry, the tested form may be a part): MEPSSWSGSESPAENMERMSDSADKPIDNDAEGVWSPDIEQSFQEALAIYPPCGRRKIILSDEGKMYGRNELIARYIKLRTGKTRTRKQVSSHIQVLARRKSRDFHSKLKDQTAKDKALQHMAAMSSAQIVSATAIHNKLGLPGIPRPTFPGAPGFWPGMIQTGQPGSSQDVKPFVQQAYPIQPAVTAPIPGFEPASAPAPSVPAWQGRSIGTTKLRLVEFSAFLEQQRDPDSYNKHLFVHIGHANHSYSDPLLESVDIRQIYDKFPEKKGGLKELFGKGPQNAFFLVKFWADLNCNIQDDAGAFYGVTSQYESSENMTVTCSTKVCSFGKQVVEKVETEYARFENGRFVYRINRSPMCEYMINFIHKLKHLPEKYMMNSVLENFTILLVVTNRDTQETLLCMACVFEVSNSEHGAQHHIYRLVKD

| pKd [1] | pIC50 [2] | pKd [3] | SMILES |
| --- | --- | --- | --- |
| 7.82 | 7.60 | – | CCCC[C@@H]1NC(=O)[C@H](CCCCN)NC(=O)[C@H](CCCNC(=N)N)NC(=O)[C@H](CC(C)C)NC(=O)[C@@H](NC(=O)[C@H](Cc2cccc(Cl)c2)N[C@H](C)[C@@H]2CCCN2C(=O)[C@@H](NC(C)=O)C(C)C)CCSSC[C@@H](C(=O)N[C@@H](CCCCN)C(=O)N2CCC[C@H]2C(=O)N2CCC[C@H]2C(=O)N[C@@H](CCC(=O)O)C(N)=O)NC(=O)[C@@H](Cc2ccccc2)NC(=O)[C@H](CO)NC(=O)[C@H](C)NC(=O)[C@@H]2CCCN2C1=O |
| – | – | 4.55 | O=C(O)c1cccnc1Nc1cccc(C(F)(F)F)c1 [NIFLUMIC ACID] |
